Consider 12 compounds from US20210269451A1, “PYRIDINYL HETEROCYCLYL COMPOUNDS FOR THE TREATMENT OF AUTOIMMUNE DISEASE” (Hoffmann-La Roche Inc., priority 2018, published 2021).

In data set [1] the target is T1, hERG channel (Homo sapiens, UniProt Q12809).
T1 construct: expressed in transfected cells; host or cells: CHO (Chinese hamster ovary), CHOhERG
Nature of the data set: hERG channel inhibition assay (patch-clamp, CHOhERG cells).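 On hERG IC20/TLR7 IC50: ratio above 30 indicates an adequate safety window.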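 On hERG IC20/TLR8 IC50: ratio above 30 indicates an adequate safety window.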 To be noted: safety ratio. In kind it is cell-based. How it is done:
hERG channel inhibition assay:
The hERG K^+ channels were cloned in humans and stably expressed in a CHO (Chinese hamster ovary) cell line. CHOhERG cells were used for patch-clamp (voltage-clamp, whole-cell) experiments. Cells were stimulated by a voltage pattern to activate hERG channels and conduct IKhERG currents (rapid delayed outward rectifier potassium current of the hERG channel). After the cells were stabilized for a few minutes, the amplitude and kinetics of IKhERG were recorded at a stimulation frequency of 0.1 Hz (6 bpm). Thereafter, the test compound was added to the preparation at increasing concentrations. For each concentration, an attempt was made to reach a steady-state effect, usually, this was achieved within 3-10 min at which time the next highest concentration was applied. The amplitude and kinetics of IKhERG are recorded in each concentration of the drug which were compared to the control values (taken as 100%). (references: Redfern W S, Carlsson L, Davis A S, Lynch W G, MacKenzie I, Palethorpe S, Siegl P K, Strang I, Sullivan A T, Wallis R, Camm A J, Hammond T G. 2003; Relationships between preclinical cardiac electrophysiology, clinical QT interval prolongation and torsade de pointes for a broad range of drugs: evidence for a provisional safety margin in drug development. Cardiovasc. Res. 58:32-45, Sanguinetti M C, Tristani-Firouzi M. 2006; hERG potassium channels and cardiac arrhythmia. Nature 440:463-469, Webster R, Leishman D, Walker D. 2002; Towards a drug concentration effect relationship for QT prolongation and torsades de pointes. Curr. Opin. Drug Discov. Devel. 5:116-26).

Data set [2] can be described thus: Human microsome stability assay. In kind it is in vitro ADME. To be noted: 1 μM test compound, 0.5 mg/mL liver microsomal protein, 37° C. The protocol: Human microsome stability assay
The human microsomal stability assay is used for early assessment of metabolic stability of a test compound in human liver microsomes.
Human liver microsomes (Cat.NO.: 452117, Corning, USA;Cat.NO.:H2610, Xenotech, USA) were preincubated with test compound for 10 minutes at 37° C. in 100 mM potassium phosphate buffer, pH 7.4. The reactions were initiated by adding NADPH regenerating system. The final incubation mixtures contained 1 μM test compound, 0.5 mg/mL liver microsomal protein, 1 mM MgCl2, 1 mM NADP, 1 unit/mL isocitric dehydrogenase and 6 mM isocitric acid in 100 mM potassium phosphate buffer, pH 7.4. After incubation times of 0, 3, 6, 9, 15 and 30 minutes at 37° C., 300 μL of cold acetonitrile (including internal standard) was added to 100 μL incubation mixture to terminate the reaction. Following precipitation and centrifugation, the amount of compound remaining in the samples were determined by LC-MS/MS. Controls of no NADPH regenerating system at zero and 30 minutes were also prepared and analyzed.

The target in data set [3] is T2, hTLR9 (Homo sapiens, UniProt Q9NR96).
T2 sequence (Q9NR96 26-1032): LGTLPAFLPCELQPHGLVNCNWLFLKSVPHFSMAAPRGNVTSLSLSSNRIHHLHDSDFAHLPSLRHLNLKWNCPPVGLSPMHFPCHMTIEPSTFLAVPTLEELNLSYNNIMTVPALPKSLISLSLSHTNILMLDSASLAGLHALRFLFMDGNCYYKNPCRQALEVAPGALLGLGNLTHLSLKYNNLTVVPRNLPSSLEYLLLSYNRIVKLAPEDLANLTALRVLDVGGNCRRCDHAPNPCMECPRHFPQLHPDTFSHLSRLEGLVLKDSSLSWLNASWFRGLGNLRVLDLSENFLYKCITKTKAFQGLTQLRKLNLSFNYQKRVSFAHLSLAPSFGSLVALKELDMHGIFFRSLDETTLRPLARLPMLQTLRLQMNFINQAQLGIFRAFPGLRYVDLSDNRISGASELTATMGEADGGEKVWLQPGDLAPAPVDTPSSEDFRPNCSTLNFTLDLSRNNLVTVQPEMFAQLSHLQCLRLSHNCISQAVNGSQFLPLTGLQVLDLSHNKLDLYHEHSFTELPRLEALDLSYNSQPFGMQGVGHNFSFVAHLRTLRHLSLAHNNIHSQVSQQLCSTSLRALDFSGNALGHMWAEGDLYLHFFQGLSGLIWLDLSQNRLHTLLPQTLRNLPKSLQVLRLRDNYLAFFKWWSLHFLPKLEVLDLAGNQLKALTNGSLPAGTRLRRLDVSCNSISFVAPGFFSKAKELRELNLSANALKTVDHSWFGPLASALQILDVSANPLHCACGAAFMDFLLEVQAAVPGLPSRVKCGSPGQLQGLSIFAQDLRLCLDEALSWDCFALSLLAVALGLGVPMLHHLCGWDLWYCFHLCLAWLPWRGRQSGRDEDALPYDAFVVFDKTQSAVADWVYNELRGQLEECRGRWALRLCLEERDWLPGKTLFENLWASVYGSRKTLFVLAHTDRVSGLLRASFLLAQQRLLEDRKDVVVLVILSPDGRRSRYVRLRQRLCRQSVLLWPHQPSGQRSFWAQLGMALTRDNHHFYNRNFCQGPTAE
On the set-up: host or cells: HEK. Particulars: disclosed in US20150105370; read-out: HEK/hTLR9 IC50; cited from earlier work.

Data set [4] deals with T3, CYP2D6 (Homo sapiens, UniProt P10635).
T3 construct: tissue BD-Gentest 452117; host or cells: human liver microsomes
T3 sequence (P10635 whole entry): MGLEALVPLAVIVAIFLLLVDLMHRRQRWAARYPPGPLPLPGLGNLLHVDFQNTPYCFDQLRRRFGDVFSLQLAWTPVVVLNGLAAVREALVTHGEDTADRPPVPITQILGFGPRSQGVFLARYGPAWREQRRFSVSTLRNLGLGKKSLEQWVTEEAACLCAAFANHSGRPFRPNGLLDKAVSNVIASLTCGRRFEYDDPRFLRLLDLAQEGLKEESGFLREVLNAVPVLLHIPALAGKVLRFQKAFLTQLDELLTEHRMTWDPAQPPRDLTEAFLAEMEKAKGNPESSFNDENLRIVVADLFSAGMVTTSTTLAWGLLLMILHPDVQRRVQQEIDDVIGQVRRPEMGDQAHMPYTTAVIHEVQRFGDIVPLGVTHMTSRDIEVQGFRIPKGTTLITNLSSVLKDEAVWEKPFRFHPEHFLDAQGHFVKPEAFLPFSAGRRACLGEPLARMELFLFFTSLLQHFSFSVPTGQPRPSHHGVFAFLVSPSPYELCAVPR
The experiment in a line: CYP inhibition assay in human liver microsome. In kind it is in vitro ADME. Particulars: human liver microsomes, probe dextromethorphan, dextromethorphan substrate, percentage inhibition <0: not or weak inhibitor, read-out: CYP 2D6 inhibition %@10 μM. How it is done: The compounds would be desirable to have minimal DDI liabilities. Therefore, the effects of compounds of formula (I) or (Ia) on CYP2D6 are determined.
This is a high throughput screening assay used for assessment of reversible inhibition of CYP2D6 activity of test compounds in human liver microsome (HLM) in early discovery stage.
10 mM DMSO stock solutions of test compounds were diluted in DMSO to generate 2 mM intermediate stock solution. 250 nL of intermediate stock solution were transferred in duplicate into 3 separate 384 well microtitre plates (assay-ready plates). A mixture of HLM and each substrate was made up. 45 μL of HLM substrate mix was then transferred to each well of an assay ready plate and mixed. The negative (solvent) and positive control (standard inhibitor for CYP 2D6) were included in each assay ready plate. The assay ready plate was warmed to 37° C. in an incubator over 10 minutes. 5 μL pre-warmed NADPH regenerating system was added to each incubation well to start the reaction. Final incubation volume was 50 μL. The assay plate then was placed back in the 37° C. incubator. After 10 minutes incubation, incubates were quenched by addition of 50 μL 100% acetonitrile containing internal standards (20 ng/mL D3-Dextrorphan). The supernatants were collected for RapidFire/MS/MS analysis.
RapidFire online solid phase extraction/sample injection system (Agilent) coupled with API4000 triple quadrupole mass spectrometer (AB Sciex) were used for sample analysis. The mobile phase composed of acetonitrile and water supplemented with 0.1% formic acid. A C4 solid phase extraction cartridge is used for sample separation. MS detection is achieved in positive ion MRM mode.
Data analysis Peak areas for substrate, metabolite and internal standard are determined using the RapidFire integrator software (version 3.6.12009.12296). Peak area ratios (PAR) of metabolite and internal standard (stable-labelled metabolite) are then calculated. The measurement window for each experiment is then defined:
PAR (0% activity), average PAR for all incubations containing concentrated inhibitor; Par (100% activity), average PAR for all incubations containing no inhibitor (DMSO controls);
% Activity (test inhibitor)=
=[PAR(test inhibitor)-PAR(0% activity)]/[PAR(100% activity)-PAR(0% activity)];
% Inhibition (test inhibitor)=100-% Activity (test inhibitor).

Some results are limits rather than exact numbers.

T1 sequence (Q12809 whole entry): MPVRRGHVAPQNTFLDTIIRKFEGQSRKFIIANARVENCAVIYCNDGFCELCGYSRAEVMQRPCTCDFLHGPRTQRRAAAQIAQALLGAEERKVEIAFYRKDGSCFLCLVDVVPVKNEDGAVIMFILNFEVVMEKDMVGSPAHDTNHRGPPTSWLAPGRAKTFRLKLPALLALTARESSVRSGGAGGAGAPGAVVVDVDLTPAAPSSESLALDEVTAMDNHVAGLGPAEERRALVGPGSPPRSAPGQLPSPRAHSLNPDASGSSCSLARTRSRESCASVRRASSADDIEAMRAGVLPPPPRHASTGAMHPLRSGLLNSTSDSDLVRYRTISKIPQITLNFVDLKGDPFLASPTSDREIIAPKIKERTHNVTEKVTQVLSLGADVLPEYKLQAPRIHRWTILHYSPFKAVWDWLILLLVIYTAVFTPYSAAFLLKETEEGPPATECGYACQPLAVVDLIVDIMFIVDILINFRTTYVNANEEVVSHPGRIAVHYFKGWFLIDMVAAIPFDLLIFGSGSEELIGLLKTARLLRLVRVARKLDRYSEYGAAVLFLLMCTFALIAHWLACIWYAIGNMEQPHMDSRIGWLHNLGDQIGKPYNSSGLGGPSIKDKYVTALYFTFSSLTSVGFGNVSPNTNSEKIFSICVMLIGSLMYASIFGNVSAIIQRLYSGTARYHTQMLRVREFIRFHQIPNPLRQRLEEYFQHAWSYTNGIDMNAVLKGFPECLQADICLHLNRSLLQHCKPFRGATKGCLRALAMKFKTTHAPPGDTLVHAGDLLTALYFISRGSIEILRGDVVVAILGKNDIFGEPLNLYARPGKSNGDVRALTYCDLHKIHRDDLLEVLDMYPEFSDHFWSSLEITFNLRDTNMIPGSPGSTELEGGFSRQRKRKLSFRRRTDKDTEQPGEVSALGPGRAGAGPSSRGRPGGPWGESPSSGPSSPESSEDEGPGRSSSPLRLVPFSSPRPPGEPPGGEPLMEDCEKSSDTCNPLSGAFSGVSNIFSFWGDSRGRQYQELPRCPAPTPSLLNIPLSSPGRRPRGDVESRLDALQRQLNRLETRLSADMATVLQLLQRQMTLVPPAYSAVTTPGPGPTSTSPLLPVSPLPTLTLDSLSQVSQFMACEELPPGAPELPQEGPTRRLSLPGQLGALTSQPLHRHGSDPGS

Regarding `C[C@@H]1CN(c2ccc(C#N)c3ncccc23)C[C@H](CN2CCN(c3ccc(Cl)cc3)CC2)O1` [Example R2, 5-[(2S,6R)-2-[[4-(4-chlorophenyl)piperazin-1-yl]methyl]-6-methyl-morpholin-4-yl]quinoline-8-carbonitrile, reference compound], in data set [1], the “hERG IC20/TLR7 IC50” value worked out at 1.3, the “hERG IC20/TLR8 IC50” value is on record as 0.8 and the “hERG IC20/TLR9 IC50” value came to 0.0.

As to `Cc1cc(N2C[C@@H](O)[C@H](NC[C@H]3CN(c4ccc(C#N)c5ncccc45)C[C@@H](C)O3)C2)cc(CO)n1` [Example 31], in data set [2], the “Clearance of Human microsome” value was determined as 7.61 mL/min/kg.

For the compound `Cc1cc(N2CC[C@@H](O)[C@H](NC[C@H]3CN(c4ccc(C#N)c5ncccc45)C[C@@H](C)O3)C2)cc(CO)n1` [Example 27], the “Clearance of Human microsome” value in data set [2] amounted to 7.67 mL/min/kg.

Regarding `COc1ccc(N2CCN(C[C@H]3CN(c4ccc(C#N)c5ncccc45)C[C@@H](C)O3)CC2)cc1` [Example R1, 5-[(2S,6R)-2-[[4-(4-methoxyphenyl)piperazin-1-yl]methyl]-6-methyl-morpholin-4-yl]quinoline-8-carbonitrile, reference compound], in data set [1], the “hERG IC20/TLR7 IC50” value is recorded as 9.3, the “hERG IC20/TLR8 IC50” value was 6.2 and the “hERG IC20/TLR9 IC50” value is 0.1. In addition, the “Clearance of Human microsome” value in data set [2] is listed as 10.84 mL/min/kg.

With `C[C@@H]1CN(c2ccc(C#N)c3ncccc23)C[C@H](CN2CC(NS(=O)(=O)c3ccc(F)cc3)C2)O1` [ER-894155], the IC50 in data set [3] was more than 10 µM.

`C[C@@H]1CN(c2ccc(C#N)c3ncccc23)C[C@H](CN2CCN(c3ccccc3)CC2)O1` [ER-887258, reference compound]: in data set [1], the “hERG IC20/TLR7 IC50” value was determined as 8.1 and the “hERG IC20/TLR9 IC50” value worked out at 0.3. In addition, in data set [3], the IC50 is more than 2 µM.

Take `Cc1cc(N2CC[C@H](NC[C@H]3CN(c4ccc(C#N)c5ncccc45)C[C@@H](C)O3)[C@@H](O)C2)cc(CO)n1` [Example 26]: the “Clearance of Human microsome” value in data set [2] is on record as 7.72 mL/min/kg.

In the case of `C[C@@H]1CN(c2ccc(C#N)c3ncccc23)C[C@H](CN2CCN(c3ccccn3)CC2)O1` [ER-888285, reference compound], in data set [1], the “hERG IC20/TLR7 IC50” value came out at 8.4 and the “hERG IC20/TLR9 IC50” value stood at 0.5. For the same compound, the IC50 in data set [3] is more than 2 µM.

Consider `Cc1nn(C)cc1S(=O)(=O)NC1CCN(C[C@H]2CN(c3ccc(C#N)c4ncccc34)C[C@@H](C)O2)CC1` [ER-894160], for which the IC50 in data set [3] is more than 10 µM.

Take `C[C@@H]1CN(c2ccc(C#N)c3ncccc23)C[C@H](CN2CC[C@@H](NC(=O)c3ccccc3)C2)O1` [ER-894544]: the IC50 in data set [3] is more than 6.2 µM.

Consider `C[C@@H]1CN(c2ccc(C#N)c3ncccc23)C[C@H](CN2CCN(c3ccncc3)CC2)O1` [ER-888286, reference compound], for which, in data set [1], the “hERG IC20/TLR7 IC50” value is on record as 0.3 and the “hERG IC20/TLR9 IC50” value was determined as 0.2. In addition, the IC50 in data set [3] was more than 2 µM.

On to `Cc1cc(N2CCN(C[C@H]3CN(c4ccc(C#N)n5nccc45)C[C@@H](C)O3)C(Cc3ccccc3)C2)cc(C)n1` (some centres unmarked) [Example 39], for which, in data set [4], the inhibition at 10 min, 10 μM stood at 7.5%.
